The record followed here is patent US9315503B2, “Kinase inhibitors” (CHIESI FARMACEUTICI S.p.A., priority 2011, dated 2016).

The target in one assay is T1, p38alpha (Homo sapiens, UniProt Q16539).
T1 construct: purchased Invitrogen PV3304
Briefly: P38Alpha enzyme inhibition assay (Alphascreen kinase activity assay). Particulars: 100 pM p38alpha, 250 μM ATP, 2 hours pre-incubation at 25° C., read-out: p38α inhibition (IC50 values). The assay is classed as biochemical. The procedure, abridged:
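AlphaScreen read-out: after an EDTA stop, an anti-phospho-ATF2 antibody with Protein A acceptor and donor beads measured substrate phosphorylation. Compounds sat 2 h at 25°C with 100 pM p38α and 0.3 µg/ml ATF-2 fusion protein (pH 7.5, 1% DMSO) before 250 µM ATP was added for 1 h. IC50 from dose-response.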
For orientation: In Alpha technology, singlet oxygen from a donor bead excites a nearby acceptor bead.

The subject of assay [1] is LPS-stimulated TNFα release from PBMCs. Put plainly: LPS-stimulated PBMC TNFα release assay. The assay is classed as cell-based. Particulars: inhibition of TNFα release, human PBMCs, LPS 10 ng/ml, 18 h, ELISA, read-out: p38α inhibition (IC50 values). Summed up: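 TNFα in supernatants measured by ELISA after 18 h LPS (10 ng/ml) challenge of human PBMCs given 1 h compound pretreatment at 37 °C in medium with 1% FBS. Percent inhibition versus control release fitted to dose-response curves for IC50; at least three independent runs.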
For orientation: ELISA stands for enzyme-linked immunosorbent assay.

Where a name gives a salt, the structure may show the parent alone.

T1 sequence (Q16539 whole entry): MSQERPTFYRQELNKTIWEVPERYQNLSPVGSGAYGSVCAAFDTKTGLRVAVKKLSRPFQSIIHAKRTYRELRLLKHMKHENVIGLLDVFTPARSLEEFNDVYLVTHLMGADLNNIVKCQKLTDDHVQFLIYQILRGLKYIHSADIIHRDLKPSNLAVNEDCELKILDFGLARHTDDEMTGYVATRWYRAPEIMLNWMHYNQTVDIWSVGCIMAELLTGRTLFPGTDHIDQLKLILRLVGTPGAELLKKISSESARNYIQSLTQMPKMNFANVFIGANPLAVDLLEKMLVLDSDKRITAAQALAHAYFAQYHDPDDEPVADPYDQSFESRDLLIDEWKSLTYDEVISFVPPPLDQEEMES

What is called IC50 is the concentration at which inhibition is half-maximal. On to `Cc1ccc(-n2nc(C(C)(C)C)cc2NC(=O)N[C@H]2CC[C@@H](Oc3ccc4nnc([C@]5(CO)CCCN5C)n4c3)c3ccccc32)cc1` [Example 85, 1-(5-tert-Butyl-2-p-tolyl-2H-pyrazol-3-yl)-3-{(1S,4R)-4-[3-((S)-2-hydroxymethyl-1-methyl-pyrrolidin-2-yl)-[1,2,4]triazolo[4,3-a]pyridin-6-yloxy]-1,2,3,4-tetrahydro-naphthalen-1-yl}-urea], for which the IC50 (at p38alpha; in assay [1]) was less than 10 nM throughout.

As to `Cc1ccc(-n2nc(C(C)(C)C)cc2NC(=O)N[C@H]2CC[C@@H](Oc3ccc4nnc(C5CN(C)CCN5C)n4c3)c3ccccc32)cc1` (stereo partly drawn) [Example 86, 1-(5-tert-Butyl-2-p-tolyl-2H-pyrazol-3-yl)-3-{(1S,4R)-4-[3-(1,4-dimethyl-piperazin-2-yl)-[1,2,4]triazolo[4,3-a]pyridin-6-yloxy]-1,2,3,4-tetrahydro-naphthalen-1-yl}-urea formate salt], the IC50 (on p38alpha; in assay [1]) was less than 10 nM throughout.

Consider `Cc1ccc(-n2nc(C(C)(C)C)cc2NC(=O)N[C@H]2CC[C@@H](Oc3ccc4nnc([C@@H]5CC(C)(C)CN5C)n4c3)c3ccccc32)cc1` [Example 87, 1-(5-tert-Butyl-2-p-tolyl-2H-pyrazol-3-yl)-3-{(1S,4R)-4-[3-((S)-1,4,4-trimethyl-pyrrolidin-2-yl)-[1,2,4]triazolo[4,3a]pyridin-6-yloxy]-1,2,3,4-tetrahydro-naphthalen-1-yl}-urea], for which the IC50 (on p38alpha; in assay [1]) was less than 10 nM throughout.

Turning to `Cc1ccc(-n2nc(C(C)(C)C)cc2NC(=O)N[C@H]2CC[C@@H](Oc3ccc4nnc([C@H]5CCCN(C)C5)n4c3)c3ccccc32)cc1` [Example 88, 1-(5-tert-Butyl-2-p-tolyl-2H-pyrazol-3-yl)-3-{(1S,4R)-4-[3-((S)-1-methyl-piperidin-3-yl)-[1,2,4]triazolo[4,3-a]pyridin-6-yloxy]-1,2,3,4-tetrahydro-naphthalen-1-yl}-urea], the IC50 (on p38alpha; in assay [1]) was less than 10 nM each time.

With `Cc1ccc(-n2nc(C(C)(C)C)cc2NC(=O)N[C@H]2CC[C@@H](Oc3ccc4nnc([C@@H]5CCCN(C)C5)n4c3)c3ccccc32)cc1` [Example 89, 1-(5-tert-Butyl-2-p-tolyl-2H-pyrazol-3-yl)-3-{(1S,4R)-4-[3-((R)-1-methyl-piperidin-3-yl)-[1,2,4]triazolo[4,3-a]pyridin-6-yloxy]-1,2,3,4-tetrahydro-naphthalen-1-yl}-urea], the IC50 (at p38alpha; in assay [1]) was less than 10 nM throughout.

Turning to `Cc1ccc(-n2nc(C(C)(C)C)cc2NC(=O)N[C@H]2CC[C@@H](Oc3ccc4nnc([C@@H]5CCN(C)C5)n4c3)c3ccccc32)cc1` [Example 90, 1-(5-tert-Butyl-2-p-tolyl-2H-pyrazol-3-yl)-3-{(1S,4R)-4-[3-((R)-1-methyl-pyrrolidin-3-yl)-[1,2,4]triazolo[4,3-a]pyridin-6-yloxy]-1,2,3,4-tetrahydro-naphthalen-1-yl}-urea], the IC50 (at p38alpha; in assay [1]) was less than 10 nM throughout.

Take `Cc1ccc(-n2nc(C(C)(C)C)cc2NC(=O)N[C@H]2CC[C@@H](Oc3ccc4nnc(N5CC[C@H](CO)C5)n4c3)c3ccccc32)cc1` [Example 92, 1-(5-tert-Butyl-2-p-tolyl-2H-pyrazol-3-yl)-3-{(1S,4R)-4-[3-((S)-3-hydroxymethyl-pyrrolidin-1-yl)-[1,2,4]triazolo[4,3-a]pyridin-6-yloxy]-1,2,3,4-tetrahydro-naphthalen-1-yl}-urea]: the IC50 (at p38alpha; in assay [1]) was less than 10 nM each time.

In the case of `Cc1ccc(-n2nc(C(C)(C)C)cc2NC(=O)N[C@H]2CC[C@@H](Oc3ccc4nnc(N5CC[C@@H](CO)C5)n4c3)c3ccccc32)cc1` [Example 93, 1-(5-tert-Butyl-2-p-tolyl-2H-pyrazol-3-yl)-3-{(1S,4R)-4-[3-((R)-3-hydroxymethyl-pyrrolidin-1-yl)-[1,2,4]triazolo[4,3-a]pyridin-6-yloxy]-1,2,3,4-tetrahydro-naphthalen-1-yl}-urea], the IC50 (on p38alpha; in assay [1]) was less than 10 nM each time.

For `Cc1ccc(-n2nc(C(C)(C)C)cc2NC(=O)N[C@H]2CC[C@@H](Oc3ccc4nnc(N5CCN(CCO)CC5)n4c3)c3ccccc32)cc1` [Example 94, 1-(5-tert-Butyl-2-p-tolyl-2H-pyrazol-3-yl)-3-((1S,4R)-4-{3-[4-(2-hydroxy-ethyl)-piperazin-1-yl]-[1,2,4]triazolo[4,3-a]pyridin-6-yloxy}-1,2,3,4-tetrahydro-naphthalen-1-yl)-urea], the IC50 was less than 10 nM on p38alpha and 10 to 100 nM in assay [1].

With `C[C@H]1CCCCN1c1nnc2ccc(O[C@@H]3CC[C@H](NC(=O)Nc4cc(C(C)(C)C)nn4-c4cccc(OCCN(C)C)c4)c4ccccc43)cn12` [Example 95], the IC50 (on p38alpha; in assay [1]) was less than 10 nM throughout.

`C[C@@H]1CCC[C@H](C)N1c1nnc2ccc(O[C@@H]3CC[C@H](NC(=O)Nc4cc(C(C)(C)C)nn4-c4cccc(OCCN(C)C)c4)c4ccccc43)cn12` [Example 96, 1-{5-tert-Butyl-2-[3-(2-dimethylamino-ethoxy)-phenyl]-2H-pyrazol-3-yl}-3-{(1S,4R)-4-[3-(cis-2,6-dimethyl-piperidin-1-yl)-[1,2,4]triazolo[4,3-a]pyridin-6-yloxy]-1,2,3,4-tetrahydro-naphthalen-1-yl}-urea formate salt]: the IC50 (at p38alpha; in assay [1]) was less than 10 nM each time.

As to `C[C@H]1CCCCN1c1nnc2ccc(O[C@@H]3CC[C@H](NC(=O)Nc4cc(C(C)(C)C)nn4-c4cccc(CN5CCOCC5)c4)c4ccccc43)cn12` [Example 97, 1-[5-tert-Butyl-2-(3-morpholin-4-ylmethyl-phenyl)-2H-pyrazol-3-yl]-3-{(1S,4R)-4-[3-((S)-2-methyl-piperidin-1-yl)-[1,2,4]triazolo[4,3-a]pyridin-6-yloxy]-1,2,3,4-tetrahydro-naphthalen-1-yl}-urea formate salt], the IC50 (on p38alpha; in assay [1]) was less than 10 nM in each case.

As to `C[C@H]1CCCCN1c1nnc2ccc(O[C@@H]3CC[C@H](NC(=O)Nc4cc(C(C)(C)C)nn4-c4cccc(CN5CCN(C)CC5)c4)c4ccccc43)cn12` [Example 98, 1-{5-tert-Butyl-2-[3-(4-methyl-piperazin-1-ylmethyl)-phenyl]-2H-pyrazol-3-yl}-3-{(1S,4R)-4-[3-((S)-2-methyl-piperidin-1-yl)-[1,2,4]triazolo[4,3-a]pyridin-6-yloxy]-1,2,3,4-tetrahydro-naphthalen-1-yl}-urea formate salt], the IC50 (on p38alpha; in assay [1]) was less than 10 nM in each case.

Take `Cc1ccc(-n2nc(C(C)(C)C)cc2NC(=O)N[C@H]2CC[C@@H](Oc3ccc4nnc(C5(N(C)C)CCCC5)n4c3)c3ccccc32)cc1` [Example 99, 1-(5-tert-Butyl-2-p-tolyl-2H-pyrazol-3-yl)-3-{(1S,4R)-4-[3-(1-dimethylamino-cyclopentyl)-[1,2,4]triazolo[4,3-a]pyridin-6-yloxy]-1,2,3,4-tetrahydro-naphthalen-1-yl}-urea]: the IC50 (on p38alpha; in assay [1]) was less than 10 nM throughout.

In the case of `Cc1ccc(-n2nc(C(C)(C)C)cc2NC(=O)N[C@H]2CC[C@@H](Oc3ccc4nnc(N5[C@H](C)CCC[C@@H]5C)n4c3)c3ccccc32)cc1` [Example 100, 1-(5-tert-Butyl-2-p-tolyl-2H-pyrazol-3-yl)-3-{(1S,4R)-4-[3-((2S,6R)-2,6-dimethyl-piperidin-1-yl)-[1,2,4]triazolo[4,3-a]pyridin-6-yloxy]-1,2,3,4-tetrahydro-naphthalen-1-yl}-urea], the IC50 (on p38alpha; in assay [1]) was less than 10 nM each time.

Consider `Cc1ccc(-n2nc(C(C)(C)C)cc2NC(=O)N[C@H]2CC[C@@H](Oc3ccc4nnc(N)n4c3)c3ccccc32)cc1` [Example 101, 1-[(1S,4R)-4-(3-Amino-[1,2,4]triazolo[4,3-a]pyridin-6-yloxy)-1,2,3,4-tetrahydro-naphthalen-1-yl]-3-(5-tert-butyl-2-p-tolyl-2H-pyrazol-3-yl)-urea], for which the IC50 (on p38alpha; in assay [1]) was less than 10 nM in each case.

With `Cc1ccc(-n2nc(C(C)(C)C)cc2NC(=O)N[C@H]2CC[C@@H](Oc3ccc4nnc(N5CCCCC5)n4c3)c3ccccc32)cn1` [Example 102, 1-[5-tert-Butyl-2-(6-methyl-pyridin-3-yl)-2H-pyrazol-3-yl]-3-[(1S,4R)-4-(3-piperidin-1-yl-[1,2,4]triazolo[4,3-a]pyridin-6-yloxy)-1,2,3,4-tetrahydro-naphthalen-1-yl]-urea], the IC50 (on p38alpha; in assay [1]) was less than 10 nM throughout.

Turning to `CC(C)N(c1nnc2ccc(O[C@@H]3CC[C@H](NC(=O)Nc4cc(C(C)(C)C)nn4-c4cccc(OCCN(C)C)c4)c4ccccc43)cn12)C(C)C` [Example 103, 1-{5-tert-Butyl-2-[3-(2-dimethylamino-ethoxy)-phenyl]-2H-pyrazol-3-yl}-3-[(1S,4R)-4-(3-diisopropylamino-[1,2,4]triazolo[4,3-a]pyridin-6-yloxy)-1,2,3,4-tetrahydro-naphthalen-1-yl]-urea], the half-inhibitory concentration (IC50) (at p38alpha; in assay [1]) was less than 10 nM in each case.

In the case of `COc1c(NC(=O)N[C@H]2CC[C@@H](Oc3ccc4nnc(N5CCCCC5)n4c3)c3ccccc32)cc(C(C)(C)C)cc1NS(C)(=O)=O` [Example 104, N-(5-tert-Butyl-2-methoxy-3-{3-[(1S,4R)-4-(3-piperidin-1-yl-[1,2,4]triazolo[4,3-a]pyridin-6-yloxy)-1,2,3,4-tetrahydro-naphthalen-1-yl]-ureido}-phenyl)-methanesulfonamide], the IC50 (on p38alpha; in assay [1]) was less than 10 nM each time.
